From patent US20240368163A1, “COMPOUNDS AND METHODS FOR MODULATING SPLICING” (REMIX THERAPEUTICS INC., priority 2021, published 2024)

Experiments:
Type in all cases: cell-based, human
HTT [1] = assay: Splicing RT-qPCR assay, HTT mRNA canonical junction (CJ) and alternative junction (AJ); settings: Homo sapiens; for AC50: increase in AJ mRNA
How it was run: (§1)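 Splice switching is measured in A673 or K562 cells after 24 h compound exposure (maximum 10 uM, 3-fold steps). Canonical and alternative junction mRNA levels are quantified by RT-qPCR relative to housekeeper and DMSO.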

SMN2 = assay: Splicing RT-qPCR panel, SMN2 canonical junction (CJ) mRNA; settings: Homo sapiens, RT-qPCR panel, canonical junction mRNA; compound concentration having 50% response in CJ decrease; read-out: SMN2 IC50 (decrease in CJ mRNA levels)
How it was run: as §1

HTT [2] = assay: HiBiT protein abundance assay, HTT; settings: Homo sapiens, K562, 24 h, Table 13A, modified K562 cells
How it was run: (§2)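 Tagged-target degradation assay: HiBiT-modified K562 cells treated 24 h with compound, 10 concentrations up to 10 μM final. Following lysis with LgBiT and substrate, luminescence gave normalized abundance; IC50 derived by logistic interpolation at 50%.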

MYB [3] = assay: Splicing RT-qPCR assay, MYB mRNA canonical junction (CJ) and alternative junction (AJ); settings: Homo sapiens; for AC50: increase in AJ mRNA
How it was run: as §1

Target C [4] = assay: Splicing RT-qPCR panel, Target C canonical junction (CJ) mRNA; settings: Homo sapiens, RT-qPCR panel, canonical junction mRNA; compound concentration having 50% response in CJ decrease; read-out: Target C IC50 (decrease in CJ mRNA levels)
How it was run: as §1

MYB [5] = assay: HiBiT protein abundance assay, MYB; settings: Homo sapiens, K562, 24 h, Table 13A, modified K562 cells
How it was run: as §2

Target C [6] = assay: HiBiT protein abundance assay, Target C; settings: Homo sapiens, K562, 24 h, Table 13A, modified K562 cells
How it was run: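 Target tagged with HiBiT by knock-in; 24 h dosing, 10 μM top final in 3-fold steps. IC50 from 4PL fit of normalized luminescence.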

[7] = 24 h, decrease in CJ mRNA, A673 or K562 cells, 24 hours treatment, RT-qPCR, read-out: HTT CJ IC50
[8] = 24 h, A673 or K562 cells, 24 hours treatment, RT-qPCR
[9] = RT-qPCR panel, canonical junction mRNA, compound concentration having 50% response in CJ decrease, read-out: HTT IC50 (decrease in CJ mRNA levels)
[10] = 24 h, decrease in CJ mRNA, A673 or K562 cells, 24 hours treatment, RT-qPCR, read-out: MYB CJ IC50
[11] = RT-qPCR panel, canonical junction mRNA, compound concentration having 50% response in CJ decrease, read-out: MYB IC50 (decrease in CJ mRNA levels)

SMILES | IC50 (HTT [1]; [7]) | AC50 (HTT [1]; [8]) | IC50 (HTT [1]; [9]) | IC50 (SMN2) | IC50 (HTT [2]) | IC50 (MYB [3]; [10]) | AC50 (MYB [3]; [8]) | IC50 (MYB [3]; [11]) | IC50 (Target C [4]) | IC50 (MYB [5]) | IC50 (Target C [6])
c1nc2c(-c3cn[nH]c3)ccc(-c3ccc(N4CCC45CCNC5)nn3)c2s1 (stereo not drawn) [Compound 277] | > 10000 nM | > 10000 nM | > 10000 nM | > 10000 nM | > 10000 nM | > 10000 nM | > 10000 nM | > 10000 nM | > 10000 nM | 1000 to 10000 nM | 1000 to 10000 nM
c1cnn(-c2ccc(-c3ccc(N[C@@H]4C[C@H]5CC[C@@H](C4)N5)nn3)c3[nH]ncc23)c1 [Compound 278] | – | 100 to 1000 nM | < 100 nM | < 100 nM | < 100 nM | 100 to 1000 nM | 100 to 1000 nM | 100 to 1000 nM | 100 to 1000 nM | 100 to 1000 nM | < 100 nM
CN(c1ccc(-c2ccc(-c3ccn(C)c(=O)c3)c3ncsc23)nn1)C1CC(C)(C)NC(C)(C)C1 [Compound 279] | 1000 to 10000 nM | 1000 to 10000 nM | 1000 to 10000 nM | 100 to 1000 nM | 1000 to 10000 nM | 1000 to 10000 nM | > 10000 nM | 1000 to 10000 nM | > 10000 nM | 1000 to 10000 nM | 1000 to 10000 nM
COc1cc(-c2ccc(-c3ccc(N(C)C4CC(C)(C)NC(C)(C)C4)nn3)c3scnc23)ccn1 [Compound 280] | 100 to 1000 nM | 100 to 1000 nM | 100 to 1000 nM | 100 to 1000 nM | < 100 nM | 1000 to 10000 nM | 1000 to 10000 nM | 1000 to 10000 nM | 1000 to 10000 nM | 100 to 1000 nM | 100 to 1000 nM
CN(c1ccc(-c2ccc(-c3ccc(=O)n(C)c3)c3ncsc23)nn1)C1CC(C)(C)NC(C)(C)C1 [Compound 281] | > 10000 nM | > 10000 nM | > 10000 nM | 100 to 1000 nM | 1000 to 10000 nM | 1000 to 10000 nM | > 10000 nM | 1000 to 10000 nM | > 10000 nM | 1000 to 10000 nM | 1000 to 10000 nM
c1nc2c(-c3cn[nH]c3)ccc(-c3ccc(N(C4CCNCC4)C4CC4)nn3)c2s1 [Compound 283] | 1000 to 10000 nM | 1000 to 10000 nM | 1000 to 10000 nM | 1000 to 10000 nM | 1000 to 10000 nM | > 10000 nM | > 10000 nM | > 10000 nM | 1000 to 10000 nM | 100 to 1000 nM | 1000 to 10000 nM
CC1(C)CC(N(c2ccc(-c3ccc(-c4cn[nH]c4)c4ncsc34)nn2)C2CC2)CC(C)(C)N1 [Compound 284] | 100 to 1000 nM | 100 to 1000 nM | 100 to 1000 nM | 100 to 1000 nM | 100 to 1000 nM | 100 to 1000 nM | > 10000 nM | 100 to 1000 nM | 1000 to 10000 nM | 100 to 1000 nM | 1000 to 10000 nM
CN(C)[C@H]1[C@@H]2CN(c3ccc(-c4ccc(-c5cn[nH]c5)c5ncsc45)nn3)C[C@@H]21 [Compound 285] | > 10000 nM | 1000 to 10000 nM | > 10000 nM | 100 to 1000 nM | 1000 to 10000 nM | > 10000 nM | > 10000 nM | > 10000 nM | > 10000 nM | 1000 to 10000 nM | > 10000 nM
CN1CCC12CCN(c1ccc(-c3ccc(-c4cn[nH]c4)c4ncsc34)nn1)C2 (stereo not drawn) [Compound 287] | > 10000 nM | > 10000 nM | > 10000 nM | 100 to 1000 nM | 1000 to 10000 nM | > 10000 nM | > 10000 nM | > 10000 nM | > 10000 nM | 100 to 1000 nM | 1000 to 10000 nM
CN1CCCC2(CCN2c2ccc(-c3ccc(-c4cn[nH]c4)c4ncsc34)nn2)C1 (stereo not drawn) [Compound 288] | > 10000 nM | > 10000 nM | > 10000 nM | 1000 to 10000 nM | 1000 to 10000 nM | > 10000 nM | > 10000 nM | > 10000 nM | > 10000 nM | 100 to 1000 nM | 1000 to 10000 nM
CN1CCC2(CC1)CCN2c1ccc(-c2ccc(-c3cn[nH]c3)c3ncsc23)nn1 [Compound 289] | > 10000 nM | > 10000 nM | > 10000 nM | > 10000 nM | 1000 to 10000 nM | 1000 to 10000 nM | > 10000 nM | 1000 to 10000 nM | > 10000 nM | 100 to 1000 nM | > 10000 nM
[2H]C([2H])([2H])N(c1ccc(-c2ccc(-c3cn[nH]c3)c3cn[nH]c23)nn1)C1CC(C)(C)NC(C)(C)C1 [Compound 292] | 100 to 1000 nM | 100 to 1000 nM | 100 to 1000 nM | < 100 nM | 100 to 1000 nM | 100 to 1000 nM | 1000 to 10000 nM | 100 to 1000 nM | 1000 to 10000 nM | 100 to 1000 nM | 100 to 1000 nM
CCN(c1ccc(-c2ccc(-c3cn[nH]c3)c3cn[nH]c23)nn1)C1CC(C)(C)NC(C)(C)C1 [Compound 293] | 1000 to 10000 nM | 1000 to 10000 nM | 1000 to 10000 nM | 100 to 1000 nM | 1000 to 10000 nM | 1000 to 10000 nM | > 10000 nM | 1000 to 10000 nM | > 10000 nM | 1000 to 10000 nM | 1000 to 10000 nM
CN(c1ccc(-c2ccc(-c3cn[nH]c3)c3cn[nH]c23)nn1)[C@@H]1C[C@H]2CCC[C@@H](C1)N2 [Compound 295] | – | < 100 nM | < 100 nM | < 100 nM | < 100 nM | < 100 nM | 100 to 1000 nM | < 100 nM | < 100 nM | < 100 nM | < 100 nM
[2H]C([2H])([2H])N(c1ccc(-c2ccc(-c3cn[nH]c3)c3cn[nH]c23)nn1)[C@@H]1C[C@H]2CCC[C@@H](C1)N2 [Compound 296] | – | < 100 nM | < 100 nM | < 100 nM | < 100 nM | 100 to 1000 nM | < 100 nM | 100 to 1000 nM | < 100 nM | < 100 nM | < 100 nM
CCN(c1ccc(-c2ccc(-c3cn[nH]c3)c3cn[nH]c23)nn1)[C@@H]1C[C@H]2CCC[C@@H](C1)N2 [Compound 297] | 100 to 1000 nM | 100 to 1000 nM | 100 to 1000 nM | < 100 nM | 100 to 1000 nM | 100 to 1000 nM | 100 to 1000 nM | 100 to 1000 nM | 100 to 1000 nM | 100 to 1000 nM | 100 to 1000 nM
CCN(c1ccc(-c2ccc(-c3cn[nH]c3)c3cn[nH]c23)nn1)[C@@H]1C[C@H]2CC[C@@H](C1)N2 [Compound 300] | 100 to 1000 nM | 100 to 1000 nM | 100 to 1000 nM | 100 to 1000 nM | 100 to 1000 nM | 1000 to 10000 nM | 100 to 1000 nM | 1000 to 10000 nM | 100 to 1000 nM | 100 to 1000 nM | 100 to 1000 nM
CN(c1ccc(-c2ccc(-c3cn[nH]c3)c3cn[nH]c23)nn1)[C@H]1[C@@H]2CNC[C@@H]21 [Compound 301] | > 10000 nM | > 10000 nM | > 10000 nM | > 10000 nM | > 10000 nM | > 10000 nM | > 10000 nM | > 10000 nM | > 10000 nM | 1000 to 10000 nM | > 10000 nM
CN1C[C@@H]2[C@H](C1)[C@H]2N(C)c1ccc(-c2ccc(-c3cn[nH]c3)c3cn[nH]c23)nn1 [Compound 302] | > 10000 nM | > 10000 nM | > 10000 nM | > 10000 nM | > 10000 nM | > 10000 nM | > 10000 nM | > 10000 nM | > 10000 nM | 1000 to 10000 nM | > 10000 nM
CN(C)[C@H]1[C@@H]2CN(c3ccc(-c4ccc(-c5cn[nH]c5)c5cn[nH]c45)nn3)C[C@@H]21 [Compound 303] | > 10000 nM | > 10000 nM | > 10000 nM | 1000 to 10000 nM | 1000 to 10000 nM | > 10000 nM | > 10000 nM | > 10000 nM | > 10000 nM | 1000 to 10000 nM | 1000 to 10000 nM
c1n[nH]cc1-c1ccc(-c2ccc(N3CC[C@@]45CCN[C@@H]4CC[C@@H]35)nn2)c2[nH]ncc12 [Compound 304] | > 10000 nM | > 10000 nM | > 10000 nM | 1000 to 10000 nM | 1000 to 10000 nM | > 10000 nM | > 10000 nM | > 10000 nM | > 10000 nM | 1000 to 10000 nM | > 10000 nM
